Data taken from patent publication US11253497B2, “Use of derivatives of polyunsaturated fatty acids as medicaments” (Lipopharma Therapeutics, S.L., priority 2009, dated 2022).

How the values were obtained:
[1] = Serum cholesterol, triglycerides and glucose in SHR rats (colorimetric); assay type: in vivo, rat; details: 200 mg/kg daily p.o., 28 days, untreated rats 100%
Procedure: In a separate experimental series, SHR rats were treated with various compounds of the present invention (200 mg/kg daily, 28 days, p.o.) and the levels of cholesterol, triglycerides and glucose in serum were measured by colorimetric methods. It was observed that these compounds induce significant (and in many cases marked) reductions in the levels of these metabolites (Table 16).
Values are expressed as percent, and in untreated (control) rats values were always considered as 100%.

α-synuclein = test: Expression of α-synuclein in neuronal cultures (cells P19); assay type: cell-based; details: untreated cells 100%
COX-2 = test: Expression of COX-2 in LPS-stimulated monocytes in culture; assay type: cell-based, human; details: positive control with LPS 100%
Text: FIG. 5A also presents a drawing showing the COX-2/COX-1 relationship as % of control (Y axis) for the following compounds (X-axis): OOA (2-hydroxy-oleic acid), OLA (182A1), OALA (183A1), OGLA (183A2), OARA (204A1), OEPA (205A1), ODHA (226A1). […] The reduction of this factor is directly related to the anti-inflammatory medication. The compounds are the same as in the left pane.
(§1) Cyclooxygenase (COX) is an enzyme that can bind to membranes, taking certain lipids from there and catalyze its conversion into molecules that can have inflammatory activity. The binding of this enzyme to membrane lipids is due in part to the membrane lipid structure. The increased activity of COX 1 and 2 isoforms has been associated with the etiopathology of a number of inflammatory diseases by […] arachidonic acid metabolism to produce pro-inflammatory lipid mediators. The D-PUFA compounds of the present invention produced a series of cellular signals that alter the metabolism of arachidonic acid and, as a result, they inhibit the activity and expression of COX in monocytes in culture (Table 14 and FIG. 5A). […] For this purpose, C57BL6/J mice were treated with the various derivatives (200 mg/kg, p.o.,) after inducing an inflammatory reaction in them by intraperitoneal injection of 20 μg of bacterial lipopolysaccharide (LPS).
Inhibition of COX-2 expression in monocytes. Percentages of inhibition (compared to the positive control in the presence of LPS, 100%) of COX-2 protein levels (expression) by the various fatty acid derivatives.

P19 cells = test: NMDA-induced neuronal death in P19 cells; assay type: cell-based; details: NMDA alone 100% death, control without NMDA 0%; negative values = proliferation
[2] = system: breast cancer cells MDA-MB-231; test: Growth of breast cancer cells MDA-MB-231; assay type: cell-based; details: 72 hours of incubation
In short: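 Human cancer cells in RPMI 1640 with 10% FBS at 37 °C, 5% CO2, exposed to D-PUFAs or PUFAs, then counted. Breast MDA-MB-231 cells run under the same conditions; values are means of three independent experiments.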

lung cancer cells A549 = test: Growth of lung cancer cells A549 (IC50); assay type: cell-based, human; details: 72 hours of incubation
In short: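 Human A549 lung cancer cells in RPMI 1640 with 10% FBS at 37 °C, 5% CO2, exposed to D-PUFAs or PUFAs, then counted. values are means of three independent experiments.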

[3] = system: apolipoprotein AI (apoA-I); test: Levels of apoA-I in SHR rats (RT-PCR); assay type: in vivo, rat; details: 200 mg/kg day p.o., 30 days, before treatment 100%
Procedure: (§2) In a separate experimental series, it was studied the effect of D-PUFA molecules of the present invention on blood pressure of SHR rats. In these animals both, blood pressure and levels of apolipoprotein AI (apoA-I) were measured. For these experiments Spontaneously Hypertensive Rats (SHR) were treated for 30 days with vehicle (water control) or compounds of the invention (200 mg/kg day, p.o.). At the end of this period, the animals' blood pressure and serum levels of apoA-I were measured. […] For these experiments, non-invasive methods for determining blood pressure (cuff-tail method) and gene expression for apoA-I (RT-PCR) described in the literature (Terés et al., 2008) were used. The usefulness of the molecules of the present invention for the treatment of cardiovascular diseases is reinforced by its capacity for reducing the levels of serum cholesterol and triglycerides (see below).
(§3) The average values of SHR before treatment were 214 mmHg and 100% respectively.

TNF-α = test: Production of TNF-α in serum of LPS-injected C57BL6/J mice; assay type: in vivo; details: LPS 20 μg i.p. (100%), 200 mg/kg p.o.
Text: as §1

[4] = system: Spontaneously Hypertensive Rats (SHR); test: Blood pressure of SHR rats (cuff-tail method); assay type: in vivo, rat; details: 200 mg/kg day p.o., 30 days, before treatment 214 mmHg
Procedure: as §2, §3

[5] = system: brain cancer cell (glioma) U118; test: Brain cancer (glioma) U118 cell growth; assay type: cell-based; details: 72 hours of incubation
In short: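 Human cells in RPMI 1640 with 10% FBS at 37 °C, 5% CO2, exposed to D-PUFAs or PUFAs, then counted. glioma U118 cells run under the same conditions; values are means of three independent experiments.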

Compound	Cholesterol in serum (top number) [1]	Glucose in serum (bottom number) [1]	Triglycerides in serum (central number) [1]	Expression of α-synuclein (α-synuclein)	COX-2 protein levels (expression), percentages of inhibition compared to positive control (COX-2)	Neuronal death (P19 cells) after treatment with NMDA (P19 cells)	IC50 [2]	IC50 (lung cancer cells A549)	Levels of apoA-I [3]	Production of TNF-α in serum (TNF-α)	Blood pressure [4]	IC50 [5]
CCCCCC=CCC=CCCCCCCC(O)C(=O)OP(=O)(OCC)OCC (stereo not drawn) [182F1]	92%	89%	88%	71%	56%	−45%	311 µM	354 µM	192%	86%	198 mm Hg	236 µM
CCCCCC=CCC=CCCCCCCC(C)C(=O)[O-].[Na+] (stereo not drawn) [182L1]	89%	94%	93%	80%	67%	−32%	343 µM	385 µM	131%	85%	207 mm Hg	229 µM
CCCCCC=CCC=CCCCCCCC(OC=O)C(=O)OCC (stereo not drawn) [182V1]	94%	93%	93%	83%	81%	−17%	442 µM	340 µM	166%	81%	207 mm Hg	231 µM
CCC=CCC=CCC=CCCCCCCC(O)C(=O)OP(=O)(OCC)OCC (stereo not drawn) [183F1]	78%	76%	71%	61%	46%	−35%	323 µM	347 µM	146%	91%	203 mm Hg	354 µM
CCCCCC=CCC=CCC=CCCCC(O)C(=O)OP(=O)(OCC)OCC (stereo not drawn) [183F2]	84%	85%	87%	52%	36%	−36%	181 µM	259 µM	279%	86%	191 mm Hg	401 µM
CCC=CCC=CCC=CCCCCCCC(C)C(=O)[O-].[Na+] (stereo not drawn) [183L1]	82%	85%	77%	76%	65%	−21%	306 µM	285 µM	125%	86%	205 mm Hg	231 µM
CCCCCC=CCC=CCC=CCCCC(C)C(=O)[O-].[Na+] (stereo not drawn) [183L2]	83%	92%	79%	73%	48%	−29%	173 µM	283 µM	268%	91%	194 mm Hg	460 µM
CCC=CCC=CCC=CCCCCCCC(OC=O)C(=O)OCC (stereo not drawn) [183V1]	75%	79%	70%	87%	79%	−9%	326 µM	320 µM	152%	84%	199 mm Hg	274 µM
CCCCCC=CCC=CCC=CCCCC(OC=O)C(=O)OCC (stereo not drawn) [183V2]	84%	88%	92%	89%	68%	−18%	241 µM	291 µM	282%	87%	198 mm Hg	402 µM
CCCCCC=CCC=CCC=CCC=CCCC(O)C(=O)OP(=O)(OCC)OCC (stereo not drawn) [204F1]	76%	84%	81%	52%	41%	−46%	326 µM	392 µM	163%	46%	199 mm Hg	275 µM
CCCCCC=CCC=CCC=CCC=CCCC(C)C(=O)[O-].[Na+] (stereo not drawn) [204L1]	83%	91%	82%	69%	47%	−27%	332 µM	326 µM	188%	49%	197 mm Hg	247 µM
CCCCCC=CCC=CCC=CCC=CCCC(OC=O)C(=O)OCC (stereo not drawn) [204V1]	84%	87%	81%	82%	43%	−11%	352 µM	326 µM	161%	42%	198 mm Hg	345 µM
CCC=CCC=CCC=CCC=CCC=CCCC(O)C(=O)OP(=O)(OCC)OCC (stereo not drawn) [205F1]	71%	82%	83%	57%	47%	−44%	275 µM	338 µM	319%	80%	195 mm Hg	498 µM
